Experimental data from article PMC6212398, “Competing protein-protein interactions regulate binding of Hsp27 to its client protein tau” (Nature Communications, 2018).
“Also recorded” adds a separate entry of the source. Ends that are not written are not given here.

Legend:
[1] = Thermal shift assay (differential scanning fluorimetry); assay type: physicochemical; settings: DSF, 0.3 mg/mL in 50 mM NaPi pH 7.4, 700 mM NaCl, 50 mM LiCl, SYPRO Orange
Procedure: Samples of Hsp27 (25 µL; 0.3 mg/mL) in DSF buffer (50 mM NaPi pH 7.4, 700 mM NaCl, 50 mM LiCl) with a 5× final concentration of SYPRO Orange (Sigma) were placed into a white 96-well plate with optically clear caps. Melt curves were acquired on a Stratagene Mx300P RT-PCR using the SYPRO filter set. Samples were heated from 25 to 95 °C in 1 °C increments for 2 min, cooled to 25 °C at each cycle, and fluorescence was measured. The melting temperature was determined using a Boltzmann fit in Prism.

0N4R tau = assay: Tau aggregation assay (thioflavin T fluorescence), 0N4R; assay type: biochemical, human; settings: 10 μM tau, chaperone 1:1 molar ratio (10 μM), heparin 44 µg/mL, 37 °C, Dulbecco's PBS pH 7.4
Procedure: (§1) Aggregation assays were performed as previously described. Briefly, all proteins were dialyzed overnight at 4 °C into assay buffer (Dulbecco’s PBS pH7.4, 2 mM MgCl2, 1 mM DTT). 0N4R or K18 Tau (10 μM) was pre-incubated in the presence/absence of chaperones (5–20 μM) for 30 min at 37 °C. Thioflavin T (Sigma) at a final concentration of 10 μM was added and aggregation was induced by the addition of a freshly prepared heparin sodium salt solution (Santa Cruz) at a final concentration of 44 µg/mL. For non-induced controls, assay buffer was added in place of heparin solution. The aggregation reaction was carried out at 37 °C with continuous shaking and monitored via Thioflavin T fluorescence (excitation = 444 nm, emission = 485 nm, cutoff = 480 nm) in a Spectramax M5 microplate reader (Molecular Devices). Readings were taken every 5 min for a minimum of 24 h. Baseline curves of non-induced controls (three replicates) were subtracted from induced samples (three replicates).

K18 tau [2] = assay: 15N K18 HSQC / TROSY-HSQC NMR with unlabeled Hsp27 constructs; assay type: binding, human; settings: 50 µM 15N K18, 100 µM Hsp27 construct (2:1), 10 °C, TROSY titration
Procedure: For ^15N K18 HSQC NMR experiments, all proteins were dialyzed overnight into NMR buffer (25 mM HEPES pH 7.4, 10 mM KCl, 5 mM MgCl2, 1 mM TCEP, 10% (v/v) D2O). Then, samples containing 50 μM ^15N-labeled tau and 50 or 100 μM unlabeled chaperone in NMR buffer were prepared. 2D HSQC spectra were acquired at 10 °C on a Bruker Avance AV800 spectrometer equipped with a cryoprobe. 16 scans were acquired per t1 value and spectral widths of 2100 Hz and 10,416 Hz were used in the ^1H and ^15N dimensions, respectively. Spectra were processed using rNMR and Sparky based on deposited tau assignments (Barre 2013, BioMagResBank accession number 19253). Signal intensity ratios were calculated using Prism, by dividing the intensity of chaperone-bound peaks by intensity of the same peak in the unbound spectra.
The ^15N TROSY HSQC experiments were performed on a Bruker Avance 800 MHz spectrometer equipped with the TXO cryogenic probe at 283 K. The [U-^15N] K18 proteins were dissolved at a concentration of 0.05–0.15 mM in 25 mM Hepes, 10 mM KCl, 5 mM MgCl2, 1 mM TCEP at pH 7.0 and titrated with the Hsp27 proteins in the same buffer. The ^1H–^15N TROSY HSQC experiments were performed with 2048 direct (^1H) and 512 indirect (^15N) points with the spectral width of 16 ppm and 36 ppm, respectively. All NMR spectra were processed by Topspin 3.1, and analyzed with Sparky (Goddard and Kneller, SPARKY 3-NMR Assignment and Integration Software. University of California, San Francisco, CA).

K18 tau [3] = assay: Competitive ELISA on immobilized K18 tau saturated with biotin-labelled Hsc70; set-up: species or system human; settings: Supplementary Figure 3A, binding not saturable, read-out: IC50 (estimated), competition with biotin-labelled Hsc70 for immobilized K18 tau
Description: B. Hsp27 ACD binding to K18tau cannot be measured by ITC
A. Hsp27 ACD has a weak affinity for tau,by ELISA
C. The interaction is also estimated tobe weak by NMR titration[Competitor], uM
D. NMR titration of VQIVYK peptide into
Supplementary Figure 3. Hsp27 ACD has a weak affinity for K18 tau. (A) K18 tau was immobilized onto ELISA plates and saturated with biotin-labelled, human Hsc70, which shares binding sites with Hsp27 ACD in the MTBRs. Competition with unlabelled Hsc70 (control) or Hsp27 ACD was then carried out. Hsp27 ACD was estimated to have an IC50 > 100 µM. (B) Binding of Hsp27 ACD to K18 tau was not able to be measured by ITC, due to solubility limits. (C) NMR titrations (see Figure S5A) also […]
interaction. CSPs of Hsp27 ACD in the presence of 3.3-fold molar excess of PHF6* peptide (500 µM).
(also on this page, place not known: [Competitor], OD450 tau, K18 tau to be by 4 normalized CSP [((δN/5) +γH ); ppm] 2 0.52 CSP (PPM) titration Hsp27) […]

K18 tau [4] = assay: Tau aggregation assay (thioflavin T fluorescence), K18; assay type: biochemical, human; settings: 10 μM tau, chaperone 1:1 molar ratio (10 μM), heparin 44 µg/mL, 37 °C, Dulbecco's PBS pH 7.4
Procedure: as §1

Hsp27 ACD [5] = molecular target: T1, Hsp27 ACD (Homo sapiens, UniProt P04792); assay: ITC of IPV-derived peptides with purified Hsp27 ACD; assay type: binding; settings: Fig. 1d, 25 °C, one-site model; for N (binding stoichiometry): peptide (1 mM) into Hsp27 ACD (100 µM)
T1 construct: Hsp27 ACD (residues Q80–S176); made in house; host or cells: E. coli BL21 (DE3)
T1 sequence (P04792 80-176): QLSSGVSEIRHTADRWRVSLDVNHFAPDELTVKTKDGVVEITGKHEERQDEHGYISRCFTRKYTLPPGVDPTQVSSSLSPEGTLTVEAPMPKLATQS
Procedure: (§2) For experiments with BAG3, proteins were dialyzed overnight against ITC buffer (25 mM Hepes, 5 mM MgCl2, 100 mM KCl, pH 7.5). For experiments with peptides, sHSPs were dialyzed overnight against SEC buffer, and peptides were dissolved in dialysis buffer. Concentrations were determined using BCA assays (Thermo Scientific), and the ITC experiment was performed with a MicroCal ITC200 (GE Healthcare) at 25 °C. In BAG3 experiments, sHSP (200 µM) in the syringe was titrated into a 10 μM cell solution of BAG3 protein. For peptide binding experiments, peptide (1 mM) was titrated into a cell containing Hsp27 proteins (100 µM). Calorimetric parameters were calculated using Origin® 7.0 software and fit with a one-site binding model.

Hsp27 ACD [6] = molecular target: T1, Hsp27 ACD; assay: NMR titration of VQIVYK peptide into 1H-15N Hsp27 ACD; assay type: binding; settings: 1H-15N ACD spectra, 3.3-fold molar excess of peptide (500 µM), Supplementary Figure 3D
Hsp27 WT = molecular target: T2, Hsp27 WT (Homo sapiens, UniProt P04792); assay: ITC of optimized IPV peptide with Hsp27 WT; assay type: binding; settings: Fig. 4b, peptide (1 mM) into full-length Hsp27 WT (100 µM), 25 °C, mean ± SEM, minimum of three independent experiments
T2 construct: Vectors for the expression of full-length human Hsp27; made in house; host or cells: E. coli BL21 (DE3)
T2 sequence (P04792 whole entry): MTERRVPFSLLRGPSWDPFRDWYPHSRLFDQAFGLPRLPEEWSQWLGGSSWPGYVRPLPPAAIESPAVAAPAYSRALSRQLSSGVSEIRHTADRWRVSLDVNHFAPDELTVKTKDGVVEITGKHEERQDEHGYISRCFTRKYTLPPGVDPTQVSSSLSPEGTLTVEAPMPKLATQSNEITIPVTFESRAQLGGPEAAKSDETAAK
Procedure: as §2

ΔNTD GPG = molecular target: T3, ΔNTD GPG (Homo sapiens, UniProt P04792, I181G/V183G); assay: ITC of optimized IPV peptide with Hsp27 ΔNTD GPG; assay type: binding; settings: Fig. 4b, peptide (1 mM) into ΔNTD GPG (100 µM), 25 °C, mean ± SEM, minimum of three independent experiments
T3 construct: For all other Hsp27 constructs (GPG, ΔNTD consisting of residues 80–205); inferred from the PMCSG7 vector and Ni-NTA purification) (N); made in house; host or cells: E. coli BL21 (DE3)
T3 sequence (P04792 80-205 I181G/V183G limits assumed): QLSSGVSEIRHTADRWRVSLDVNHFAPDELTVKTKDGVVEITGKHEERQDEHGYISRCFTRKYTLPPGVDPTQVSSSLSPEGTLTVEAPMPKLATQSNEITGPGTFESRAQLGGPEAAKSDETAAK
Procedure: as §2

Hsp27 3D = molecular target: T4, Hsp27 3D (Homo sapiens, UniProt P04792, S15D/S78D/S82D); assay: ITC of optimized IPV peptide with Hsp27 3D; assay type: binding; settings: Fig. 4b, peptide (1 mM) into Hsp27 3D (100 µM), 25 °C, mean ± SEM, minimum of three independent experiments
T4 construct: Sample aggregation curves of tau constructs with full-length Hsp27; made in house; host or cells: E. coli BL21 (DE3)
T4 sequence (P04792 whole entry S15D/S78D/S82D): as the sequence (P04792 whole entry) above, with S15D, S78D, S82D counted along it
Procedure: as §2

BAG3 = assay: Interaction of Hsp27 ACD with BAG3 by FCPIA; assay type: binding; settings: Supplementary Figure 4
[7] = Fig. 4a, Boltzmann fit, mean ± SD of three independent experiments

## 3D: pseudo-phosphorylation mutant; S15, S78 and S82 replaced with aspartate
[1]; Supplementary Figure 8A
  TM: 72.2 ± 0.85 °C
0N4R tau
  Effect on aggregation of 0N4R tau (ThT fluorescence): retains the ability to prevent tau aggregation
K18 tau [2]
  Binding to 15N K18 tau by NMR (peak broadening / CSPs): binds to K18’s aggregation motifs

## Hsp27 ACD: α-crystallin domain of human Hsp27 (residues Q80–S176)
K18 tau [3]
  IC50: > 100 µM
0N4R tau
  Effect on aggregation of 0N4R tau (ThT fluorescence): no effect
K18 tau [4]
  Effect on aggregation of K18 tau (ThT fluorescence): no effect
K18 tau [2]
  Binding to 15N K18 tau by NMR (peak broadening / CSPs): weak and unsaturable

## EITIPVTFE [Hsp27 IPV]
Hsp27 ACD [5]
  N (binding stoichiometry): 0.90
Hsp27 ACD [5]; peptide (1 mM) titrated into Hsp27 ACD (100 µM), SEC buffer (50 mM sodium phosphate, 100 mM NaCl), mean ± SEM, minimum of three independent experiments, ND = no detectable binding
  Kd: > 25 µM

## GPG: Hsp27 with isoleucine and valine of the IPV mutated to glycine
[1]; [7]
  TM: 66.8 ± 0.3 °C
K18 tau [2]
  Binding to 15N K18 tau by NMR (peak broadening / CSPs): bound to K18

## VQIVYK [PHF6* peptide, 6-mer PHF6* peptide from tau]
Hsp27 ACD [6]
  Binding to Hsp27 ACD by NMR titration (chemical shift changes): unable to produce saturable chemical shift changes
Hsp27 ACD [6]; listed as VQIVYK peptide
  Binding to Hsp27 ACD by NMR titration (chemical shift changes): weak interaction; also recorded: weak/no

## Hsp27 X: WT Hsp27 cross-linked with gluteraldehyde
0N4R tau
  Effect on aggregation of 0N4R tau (ThT fluorescence): severely compromised
K18 tau [4]
  Effect on aggregation of K18 tau (ThT fluorescence): severely compromised

## ΔNTD: Hsp27 with NTD deleted, residues 80–205
0N4R tau
  Effect on aggregation of 0N4R tau (ThT fluorescence): ablated Hsp27’s ability to delay tau aggregation
K18 tau [4]
  Effect on aggregation of K18 tau (ThT fluorescence): ablated Hsp27’s ability to delay tau aggregation

## EITIPVTHE [Hsp27 IPV H]
Hsp27 WT
  Kd: does not bind
ΔNTD GPG
  Kd: 14.3 µM
Hsp27 3D
  Kd: > 50 µM

## WT: full-length human Hsp27
[1]; [7]
  TM: 73.1 ± 1.1 °C
[1]; Supplementary Figure 8A
  TM: 72.2 ± 1.0 °C
0N4R tau
  Effect on aggregation of 0N4R tau (ThT fluorescence): prevents aggregation
K18 tau [4]
  Effect on aggregation of K18 tau (ThT fluorescence): prevents aggregation
K18 tau [2]
  Binding to 15N K18 tau by NMR (peak broadening / CSPs): does not
K18 tau [2]; listed as full-length Hsp27
  Binding to 15N K18 tau by NMR (peak broadening / CSPs): no broadening or CSPs

## EIAIPVTHE [T180A]
Hsp27 ACD [5]
  N (binding stoichiometry): 0.65

## L157A ACD: Hsp27 ACD mutant L157A
BAG3
  BAG3 binding: deficient in BAG3 binding
